Assay results taken from PubChem BioAssay (NCI).
Values joined by “and” are separate entries in the source; they are usually repeats but may differ in a detail not shown here. Equal entries are not always repeated.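 All cell lines were grown in 96-well plates and treated with compound for 48 hours. GI50 is the concentration that inhibits growth by half. TGI marks complete inhibition of growth.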

Each compound was assayed on SN12C renal (assay: growth of human tumour cells (NCI), 48 h).

| SMILES | GI50 | TGI |
| --- | --- | --- |
| COc1ccc(/C(COc2c(-c3ccccc3)oc3ccccc3c2=O)=N\O)cc1 | 10.6 µM | 33.9 µM |
| Cn1c(=O)c2[nH]c(SCc3ccccn3)nc2n(C)c1=S |  | > 100 µM |
| COc1cc2c(c(O)c1Br)C(=O)c1c(O)cc(C[C@H](C)O)cc1[C@H]2[C@H]1c2cc(C[C@H](C)O)cc(O)c2C(=O)c2c1cc(OC)c(Br)c2O | 2.25 µM and 3.64 µM | 67.5 µM and > 100 µM |
| COc1ccc(-c2cc(=O)c3ccc(O)cc3o2)cc1OC |  | > 100 µM |
| CC[C@]1(O)C[C@@H]2CN(CCc3c([nH]c4ccccc34)[C@@](C(=O)OC)(c3cc4c(cc3OC)N(C)[C@H]3[C@@](O)(C(=O)OC)[C@H](OC(C)=O)[C@]5(CC)C=CCN6CC[C@]43[C@@H]65)C2)C1 | < 0.01 µM | 35.7 µM |
| N#CSc1c[nH]c2cccc(/C=C/C(=O)/C=C(/C=C/c3cccc4[nH]cc(SC#N)c34)OB(F)F)c12 | 0.495 µM | 3.72 µM |
| COc1cc([N+](=O)[O-])cc2c3c(n(C)c12)[C@@]1(C)CCC2c4ccc(OCc5ccccc5)cc4CCC2C1C3 (stereo not given in full) | > 100 µM | > 100 µM |
| C=CC(=O)N1CC2(CCN(c3nc(OC4CCN(CCCOC)CC4)nc4c(OCC(F)(F)F)c(-c5c(C)ccc6[nH]ncc56)c(C5CC5)cc34)CC2)C1 | 2.36 µM | 5.86 µM |
| FC(F)(F)c1cccc(Nc2nccc(-c3cnn4nc(-c5ccccc5)ccc34)n2)c1 | > 13.5 µM | > 25 µM |
| CC[C@@H]1C(=O)N(C)c2cnc(Nc3ccc(C(=O)NC4CCN(C)CC4)cc3OC)nc2N1C1CCCC1 | 0.0233 µM and 0.039 µM | 4.32 µM and 14.1 µM |
| C=C1C(=O)O[C@H]2[C@H]1CC/C(COC(=O)c1ccc3ccccc3c1)=C\CC[C@@]1(C)O[C@@H]21 | 1.16 µM | 2.87 µM |
| CC[CH2][Sn]([CH2]CC)([O]C(=O)c1cccnc1SC)[O][Sn]([CH2]CC)([CH2]CC)[O]C(=O)c1cccnc1SC | 0.453 µM | 1.39 µM |
| COC1/C=C\C=C(/C)C(=O)NC2=CC(=O)C(=O)C(=C2O)CC(C)CC(OC)C(O)C(C)/C=C(\C)C1OC(N)=O (stereo not given) |  | 3.22 µM |

These compounds were tested on SNB-75 CNS (assay: growth of human tumour cells (NCI), 48 h).

| SMILES | GI50 | TGI |
| --- | --- | --- |
| CN1CCN(C(=O)OCc2nc3c(N4CCOCC4)nc(Cl)nc3n2C)CC1 | 1.35 µM | 2.73 µM |
| COC(=O)[C@]12CC[C@@H](C)[C@H](C)[C@@H]1C1=CC[C@@H]3[C@@]4(C)C/C(=N\O)[C@H](O)[C@@]5(C)COC(=C45)C[C@@]3(C)[C@]1(C)CC2 | 3.51 µM | 21.4 µM |
| Oc1c(CN2CCC(N3CCCCC3)CC2)cc(Cc2cc(CN3CCC(N4CCCCC4)CC3)c(O)c3ncccc23)c2cccnc12 | 1.65 µM | 13.4 µM |
| Cn1c2ccccc2c2c(-c3ccccc3)[n+]3ccncc3nc21 | > 100 µM | > 100 µM |
| COc1ccc(-c2cnnc3c(-c4cccc(C(F)(F)F)c4)cnn23)cc1 | 1.51 µM | 4.6 µM |
| C=CCCCCCCCCC(=O)[O][Sn]([CH2]CCC)([CH2]CCC)[CH2]CCC | 0.134 µM | 0.326 µM |
| CC/C(=C(/c1ccc(O)cc1)c1ccc(OCCNC)cc1)c1ccccc1 | 1.43 µM | 5.24 µM |
| O=C(/C(Br)=C/c1ccccc1)c1ccccc1 | 10.6 µM | 24.2 µM |
| C=C1C(=O)O[C@H]2[C@H]1CC/C(Cn1cc(-c3ccc(OC)cc3)nn1)=C\CC[C@@]1(C)O[C@@H]21 | 1.47 µM | 3.28 µM |
| CCOc1cc2c(Cl)ncnc2c(OCC)c1OCC | 3.11 µM | 15.9 µM |
| Oc1ccc2ccccc2c1N=Nc1nccs1 | 1.46 µM | 24.7 µM |
| CC(=O)OCCN1c2ccccc2Sc2cnccc21 |  | > 10 µM |
| COc1ccc(/C(COc2c(-c3ccccc3)oc3ccccc3c2=O)=N\O)cc1 | 22.2 µM | > 50 µM |
| Cn1c(=O)c2[nH]c(SCc3ccccn3)nc2n(C)c1=S |  | 45.2 µM |
| COc1cc2c(c(O)c1Br)C(=O)c1c(O)cc(C[C@H](C)O)cc1[C@H]2[C@H]1c2cc(C[C@H](C)O)cc(O)c2C(=O)c2c1cc(OC)c(Br)c2O | 5.09 µM and 16 µM | 56.5 µM and 67 µM |
| COc1ccc(-c2cc(=O)c3ccc(O)cc3o2)cc1OC |  | > 100 µM |
| CC[C@]1(O)C[C@@H]2CN(CCc3c([nH]c4ccccc34)[C@@](C(=O)OC)(c3cc4c(cc3OC)N(C)[C@H]3[C@@](O)(C(=O)OC)[C@H](OC(C)=O)[C@]5(CC)C=CCN6CC[C@]43[C@@H]65)C2)C1 | < 0.01 µM | 0.592 µM |
| N#CSc1c[nH]c2cccc(/C=C/C(=O)/C=C(/C=C/c3cccc4[nH]cc(SC#N)c34)OB(F)F)c12 | 2.18 µM | 7.55 µM |
| COc1cc([N+](=O)[O-])cc2c3c(n(C)c12)[C@@]1(C)CCC2c4ccc(OCc5ccccc5)cc4CCC2C1C3 (stereo not given in full) | 23.9 µM | 63.9 µM |
| C=CC(=O)N1CC2(CCN(c3nc(OC4CCN(CCCOC)CC4)nc4c(OCC(F)(F)F)c(-c5c(C)ccc6[nH]ncc56)c(C5CC5)cc34)CC2)C1 | 3.83 µM | 16.8 µM |
| FC(F)(F)c1cccc(Nc2nccc(-c3cnn4nc(-c5ccccc5)ccc34)n2)c1 | 3.91 µM | 9.6 µM |
| CC[C@@H]1C(=O)N(C)c2cnc(Nc3ccc(C(=O)NC4CCN(C)CC4)cc3OC)nc2N1C1CCCC1 | 0.00411 µM and < 0.0112 µM | 0.233 µM and 0.17 µM |
| C=C1C(=O)O[C@H]2[C@H]1CC/C(COC(=O)c1ccc3ccccc3c1)=C\CC[C@@]1(C)O[C@@H]21 | 1.44 µM | 3.05 µM |
| CC[CH2][Sn]([CH2]CC)([O]C(=O)c1cccnc1SC)[O][Sn]([CH2]CC)([CH2]CC)[O]C(=O)c1cccnc1SC | 0.584 µM | 1.97 µM |

These compounds were tested on U251 CNS (assay: growth of human tumour cells (NCI), 48 h).

| SMILES | GI50 | TGI |
| --- | --- | --- |
| CN1CCN(C(=O)OCc2nc3c(N4CCOCC4)nc(Cl)nc3n2C)CC1 | 1.52 µM | 3.39 µM |
| COC(=O)[C@]12CC[C@@H](C)[C@H](C)[C@@H]1C1=CC[C@@H]3[C@@]4(C)C/C(=N\O)[C@H](O)[C@@]5(C)COC(=C45)C[C@@]3(C)[C@]1(C)CC2 | 3.02 µM | 9.79 µM |
| Oc1c(CN2CCC(N3CCCCC3)CC2)cc(Cc2cc(CN3CCC(N4CCCCC4)CC3)c(O)c3ncccc23)c2cccnc12 | 0.835 µM | 13.6 µM |
| Cn1c2ccccc2c2c(-c3ccccc3)[n+]3ccncc3nc21 | 47.4 µM | > 100 µM |
| COc1ccc(-c2cnnc3c(-c4cccc(C(F)(F)F)c4)cnn23)cc1 | 3.61 µM | > 100 µM |
| C=CCCCCCCCCC(=O)[O][Sn]([CH2]CCC)([CH2]CCC)[CH2]CCC | 0.165 µM | 0.318 µM |
| CC/C(=C(/c1ccc(O)cc1)c1ccc(OCCNC)cc1)c1ccccc1 | 1.54 µM | 2.93 µM |
| O=C(/C(Br)=C/c1ccccc1)c1ccccc1 | 1.83 µM | 4.4 µM |
| C=C1C(=O)O[C@H]2[C@H]1CC/C(Cn1cc(-c3ccc(OC)cc3)nn1)=C\CC[C@@]1(C)O[C@@H]21 | 9.45 µM | 21.5 µM |
| CCOc1cc2c(Cl)ncnc2c(OCC)c1OCC | 7 µM | 19.6 µM |
| Oc1ccc2ccccc2c1N=Nc1nccs1 | 0.29 µM | 13.4 µM |
| CC(=O)OCCN1c2ccccc2Sc2cnccc21 |  | > 10 µM |
| CC(C)(CC(=O)Nc1ccccc1)C(=O)O |  | > 100 µM |
| COc1ccc(/C(COc2c(-c3ccccc3)oc3ccccc3c2=O)=N\O)cc1 | 18.9 µM | > 50 µM |
| Cn1c(=O)c2[nH]c(SCc3ccccn3)nc2n(C)c1=S |  | > 100 µM |
| COc1cc2c(c(O)c1Br)C(=O)c1c(O)cc(C[C@H](C)O)cc1[C@H]2[C@H]1c2cc(C[C@H](C)O)cc(O)c2C(=O)c2c1cc(OC)c(Br)c2O | 2.97 µM and 5.25 µM | 23.1 µM and 39.2 µM |
| COc1ccc(-c2cc(=O)c3ccc(O)cc3o2)cc1OC |  | > 100 µM |
| CC[C@]1(O)C[C@@H]2CN(CCc3c([nH]c4ccccc34)[C@@](C(=O)OC)(c3cc4c(cc3OC)N(C)[C@H]3[C@@](O)(C(=O)OC)[C@H](OC(C)=O)[C@]5(CC)C=CCN6CC[C@]43[C@@H]65)C2)C1 | < 0.01 µM | 20.5 µM |
| N#CSc1c[nH]c2cccc(/C=C/C(=O)/C=C(/C=C/c3cccc4[nH]cc(SC#N)c34)OB(F)F)c12 | 0.366 µM | 4.25 µM |
| COc1cc([N+](=O)[O-])cc2c3c(n(C)c12)[C@@]1(C)CCC2c4ccc(OCc5ccccc5)cc4CCC2C1C3 (stereo not given in full) | 37.5 µM | > 100 µM |
| C=CC(=O)N1CC2(CCN(c3nc(OC4CCN(CCCOC)CC4)nc4c(OCC(F)(F)F)c(-c5c(C)ccc6[nH]ncc56)c(C5CC5)cc34)CC2)C1 | 2.81 µM | 10 µM |
| FC(F)(F)c1cccc(Nc2nccc(-c3cnn4nc(-c5ccccc5)ccc34)n2)c1 | 4.58 µM | 10.1 µM |
| CC[C@@H]1C(=O)N(C)c2cnc(Nc3ccc(C(=O)NC4CCN(C)CC4)cc3OC)nc2N1C1CCCC1 | 0.00492 µM and < 0.01 µM | > 10 µM and 7.79 µM |
| C=C1C(=O)O[C@H]2[C@H]1CC/C(COC(=O)c1ccc3ccccc3c1)=C\CC[C@@]1(C)O[C@@H]21 | 1.21 µM | 2.5 µM |
| CC[CH2][Sn]([CH2]CC)([O]C(=O)c1cccnc1SC)[O][Sn]([CH2]CC)([CH2]CC)[O]C(=O)c1cccnc1SC | 0.25 µM | 0.592 µM |
| COC1/C=C\C=C(/C)C(=O)NC2=CC(=O)C(=O)C(=C2O)CC(C)CC(OC)C(O)C(C)/C=C(\C)C1OC(N)=O (stereo not given) |  | > 40.3 µM |
